In patent publication US20240239752A1, “BICYCLIC HETEROAROMATIC INHIBITORS OF KLK5” (BioCryst Pharmaceuticals, Inc., priority 2021, published 2024):
pIC50: −log10 of the molar value.

Target: T1, recombinant human KLK5 (Homo sapiens, UniProt Q9Y337)
T1 construct: purchased Novoprotein or R&D Systems C415 or 1108-SE
T1 sequence (Q9Y337 23-293): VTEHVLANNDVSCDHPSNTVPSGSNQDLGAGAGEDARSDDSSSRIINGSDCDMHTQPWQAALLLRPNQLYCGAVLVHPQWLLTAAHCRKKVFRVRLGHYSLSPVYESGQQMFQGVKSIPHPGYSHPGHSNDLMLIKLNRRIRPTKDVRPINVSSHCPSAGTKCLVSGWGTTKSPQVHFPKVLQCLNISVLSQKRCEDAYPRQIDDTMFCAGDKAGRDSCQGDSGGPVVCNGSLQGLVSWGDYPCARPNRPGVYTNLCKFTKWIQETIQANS
Experiment: Kallikrein (KLK) 5 enzymatic assay (Boc-VPR-AMC fluorogenic substrate)
Assay type: biochemical
Settings: recombinant human KLK5 0.1 μg/well, Boc-VPR-AMC 100 μM, pH 7.5, room temperature, 1% DMSO; tested a minimum of three times
In short: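 Recombinant human KLK5 (0.1 μg/well) was preincubated with compound at room temperature in 0.1 M NaH2PO4, pH 7.5, 1% DMSO, then started with 100 μM Boc-VPR-AMC. The rate was followed at 380/460 nm, and IC50 came from percent inhibition relative to enzyme alone, with at least three runs.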

Compound | pIC50
Cc1cccc(OCc2nn(C3CCC(F)(F)C3)c3ccc(-c4ccc5ccnc(N)c5c4)cc23)c1CC(=O)O (stereo not drawn) [Compound 277b, 2-(2-((5-(1-aminoisoquinolin-7-yl)-1-(3,3-difluorocyclopentyl)-1H-indazol-3-yl)methoxy)-6-methylphenyl)acetic acid] | > 6.00
CC(C)(C)OC(=O)NCc1cc(-c2cccc3c(N)nccc23)cc2c(COc3ccccc3CC(=O)O)nn(C3CCCCO3)c12 (stereo not drawn) [Compound 278c, 2-(2-((5-(1-aminoisoquinolin-5-yl)-7-(((tert-butoxycarbonyl)amino)methyl)-1-(tetrahydro-2H-pyran-2-yl)-1H-indazol-3-yl)methoxy)phenyl)acetic acid] | 5.00 to 6.00
Nc1nccc2c(-c3cnc4c(c3)c(COc3ccccc3CC(=O)O)cn4C3CCOC3)cccc12 (stereo not drawn) [Compound 279g, 2-(2-((5-(1-aminoisoquinolin-5-yl)-1-(tetrahydrofuran-3-yl)-1H-pyrrolo[2,3-b]pyridin-3-yl)methoxy)phenyl)acetic acid] | > 6.00
NCc1cc(-c2cccc3c(N)nccc23)cc2c(COc3ccccc3CC(=O)O)n[nH]c12 [Compound 280a, 2-(2-((5-(1-aminoisoquinolin-5-yl)-7-(aminomethyl)-1H-indazol-3-yl)methoxy)phenyl)acetic acid] | 5.00 to 6.00
Nc1nccc2ccc(-c3ccc4c(c3)c(COc3ccccc3CC(=O)O)nn4C3CCOCC3)cc12 [Compound 281g, 2-(2-((5-(1-aminoisoquinolin-7-yl)-1-(tetrahydro-2H-pyran-4-yl)-1H-indazol-3-yl)methoxy)phenyl)acetic acid] | > 6.00
Nc1nccc2c(-c3ccc4c(c3)c(COc3ccccc3CC(=O)O)nn4C3CCOCC3)cccc12 [Compound 282b, 2-(2-((5-(1-aminoisoquinolin-5-yl)-1-(tetrahydro-2H-pyran-4-yl)-1H-indazol-3-yl)methoxy)phenyl)acetic acid] | > 6.00
Nc1nccc2ccc(-c3ccc4c(c3)c(COc3ccccc3CC(=O)O)nn4C3CCCOC3)cc12 (stereo not drawn) [Compound 283g, 2-(2-((5-(1-aminoisoquinolin-7-yl)-1-(tetrahydro-2H-pyran-3-yl)-1H-indazol-3-yl)methoxy)phenyl)acetic acid] | > 6.00
Nc1nccc2c(-c3ccc4c(c3)c(COc3ccccc3CC(=O)O)nn4C3CCCOC3)cccc12 (stereo not drawn) [Compound 284b, 2-(2-((5-(1-aminoisoquinolin-5-yl)-1-(tetrahydro-2H-pyran-3-yl)-1H-indazol-3-yl)methoxy)phenyl)acetic acid] | > 6.00
Nc1nccc2c(-c3ccc4c(c3)N(Cc3ccccc3CC(=O)O)CC4)cccc12 [Compound 285d, 2-(2-((6-(1-aminoisoquinolin-5-yl)indolin-1-yl)methyl)phenyl)acetic acid] | 5.00 to 6.00
NC(=O)c1cc(-c2cccc3c(N)nccc23)cc2c(COc3ccccc3CC(=O)O)nn(C3CCCCO3)c12 (stereo not drawn) [Compound 286a, 2-(2-((5-(1-aminoisoquinolin-5-yl)-7-carbamoyl-1-(tetrahydro-2H-pyran-2-yl)-1H-indazol-3-yl)methoxy)phenyl)acetic acid] | 5.00 to 6.00
NCc1cc(-c2cccc3c(N)nccc23)cc2c(COc3ccccc3CC(=O)O)nn(C3CCCCO3)c12 (stereo not drawn) [Compound 287a, 2-(2-((5-(1-aminoisoquinolin-5-yl)-7-(aminomethyl)-1-(tetrahydro-2H-pyran-2-yl)-1H-indazol-3-yl)methoxy)phenyl)acetic acid] | 5.00 to 6.00
Nc1nccc2ccc(-c3ccc4c(c3)c(COc3cccc(OC(F)(F)F)c3CC(=O)O)nn4C3CCOC3)cc12 (stereo not drawn) [Compound 288d, 2-(2-((5-(1-aminoisoquinolin-7-yl)-1-(tetrahydrofuran-3-yl)-1H-indazol-3-yl)methoxy)-6-(trifluoromethoxy)phenyl)acetic acid] | > 6.00
Nc1nccc2c(-c3ccc4c(c3)c(COc3cccc(OC(F)(F)F)c3CC(=O)O)nn4C3CCOC3)cccc12 (stereo not drawn) [Compound 289b, 2-(2-((5-(1-aminoisoquinolin-5-yl)-1-(tetrahydrofuran-3-yl)-1H-indazol-3-yl)methoxy)-6-(trifluoromethoxy)phenyl)acetic acid] | > 6.00
Nc1nccc2ccc(-c3ccc4c(c3)c(COc3cccc(C5CC5)c3CC(=O)O)nn4C3CCOC3)cc12 (stereo not drawn) [Compound 290d, 2-(2-((5-(1-aminoisoquinolin-7-yl)-1-(tetrahydrofuran-3-yl)-1H-indazol-3-yl)methoxy)-6-cyclopropylphenyl)acetic acid] | > 6.00
Nc1nccc2c(-c3ccc4c(c3)c(COc3cccc(C5CC5)c3CC(=O)O)nn4C3CCOC3)cccc12 (stereo not drawn) [Compound 291b, 2-(2-((5-(1-aminoisoquinolin-5-yl)-1-(tetrahydrofuran-3-yl)-1H-indazol-3-yl)methoxy)-6-cyclopropylphenyl)acetic acid] | > 6.00
N#Cc1cccc(OCc2nn(C3CCOC3)c3ccc(-c4ccc5ccnc(N)c5c4)cc23)c1CC(=O)O (stereo not drawn) [Compound 292d, 2-(2-((5-(1-aminoisoquinolin-7-yl)-1-(tetrahydrofuran-3-yl)-1H-indazol-3-yl)methoxy)-6-cyanophenyl)acetic acid] | 5.00 to 6.00
N#Cc1cccc(OCc2nn(C3CCOC3)c3ccc(-c4cccc5c(N)nccc45)cc23)c1CC(=O)O (stereo not drawn) [Compound 293b, 2-(2-((5-(1-aminoisoquinolin-5-yl)-1-(tetrahydrofuran-3-yl)-1H-indazol-3-yl)methoxy)-6-cyanophenyl)acetic acid] | > 6.00
Cc1cccc(OCc2cn(C3CCOC3)c3ncc(-c4cccc5c(N)nccc45)cc23)c1CC(=O)O (stereo not drawn) [Compound 294c, 2-(2-((5-(1-aminoisoquinolin-5-yl)-1-(tetrahydrofuran-3-yl)-1H-pyrrolo[2,3-b]pyridin-3-yl)methoxy)-6-methylphenyl)acetic acid] | > 6.00
Nc1nccc2ccc(-c3ccc4c(c3)c(COc3ccccc3CC(=O)O)nn4CC3CNC3)cc12 [Compound 295c, 2-(2-((5-(1-aminoisoquinolin-7-yl)-1-(azetidin-3-ylmethyl)-1H-indazol-3-yl)methoxy)phenyl)acetic acid] | > 6.00
Nc1nccc2c(-c3ccc4c(c3)c(COc3ccccc3CC(=O)O)nn4CC3CNC3)cccc12 [Compound 296b, 2-(2-((5-(1-aminoisoquinolin-5-yl)-1-(azetidin-3-ylmethyl)-1H-indazol-3-yl)methoxy)phenyl)acetic acid] | > 6.00
Nc1nccc2ccc(-c3ccc4c(c3)c(COc3ccccc3CC(=O)O)nn4C3CCN(CC(=O)O)C3)cc12 (stereo not drawn) [Compound 297d, 2-(2-((5-(1-aminoisoquinolin-7-yl)-1-(1-(carboxymethyl)pyrrolidin-3-yl)-1H-indazol-3-yl)methoxy)phenyl)acetic acid] | > 6.00
Nc1nccc2c(-c3ccc4c(c3)c(COc3ccccc3CC(=O)O)nn4C3CCN(CCO)C3)cccc12 (stereo not drawn) [Compound 298c, 2-(2-((5-(1-aminoisoquinolin-5-yl)-1-(1-(2-hydroxyethyl)pyrrolidin-3-yl)-1H-indazol-3-yl)methoxy)phenyl)acetic acid] | > 6.00
Nc1nccc2ccc(-c3ccc4c(c3)c(COc3ccccc3CC(=O)O)nn4C3CCN(CCO)C3)cc12 (stereo not drawn) [Compound 299b, 2-(2-((5-(1-aminoisoquinolin-7-yl)-1-(1-(2-hydroxyethyl)pyrrolidin-3-yl)-1H-indazol-3-yl)methoxy)phenyl)acetic acid] | > 6.00
COc1c(CN)cccc1-c1cc2c(COc3ccccc3CC(=O)O)cccc2o1 [Compound 300d, 2-(2-((2-(3-(aminomethyl)-2-methoxyphenyl)benzofuran-4-yl)methoxy)phenyl)acetic acid] | < 5.00
Nc1nccc2c(-c3ccc4c(c3)c(C#Cc3ccccc3CC(=O)O)cn4C3CCOC3)cccc12 (stereo not drawn) [Compound 301f, 2-(2-((5-(1-aminoisoquinolin-5-yl)-1-(tetrahydrofuran-3-yl)-1H-indol-3-yl)ethynyl)phenyl)acetic acid] | > 6.00
Nc1nccc2c(-c3ccc4c(c3)c(CCc3ccccc3CC(=O)O)cn4C3CCOC3)cccc12 (stereo not drawn) [Compound 302b, 2-(2-(2-(5-(1-aminoisoquinolin-5-yl)-1-(tetrahydrofuran-3-yl)-1H-indol-3-yl)ethyl)phenyl)acetic acid] | > 6.00
COCCN1CCC(n2nc(COc3ccccc3CC(=O)O)c3cc(-c4cccc5c(N)nccc45)ccc32)C1 (stereo not drawn) [Compound 303c, 2-(2-((5-(1-aminoisoquinolin-5-yl)-1-(1-(2-methoxyethyl)pyrrolidin-3-yl)-1H-indazol-3-yl)methoxy)phenyl)acetic acid] | > 6.00
COCCN1CCC(n2nc(COc3ccccc3CC(=O)O)c3cc(-c4ccc5ccnc(N)c5c4)ccc32)C1 (stereo not drawn) [Compound 304b, 2-(2-((5-(1-aminoisoquinolin-7-yl)-1-(1-(2-methoxyethyl)pyrrolidin-3-yl)-1H-indazol-3-yl)methoxy)phenyl)acetic acid] | > 6.00
Nc1nccc2c(-c3ccc4c(c3)c(COc3ccccc3CC(=O)O)nn4C3CCN(CC(=O)O)C3)cccc12 (stereo not drawn) [Compound 305b, 2-(2-((5-(1-aminoisoquinolin-5-yl)-1-(1-(carboxymethyl)pyrrolidin-3-yl)-1H-indazol-3-yl)methoxy)phenyl)acetic acid] | > 6.00
COCCN1CC(Cn2nc(COc3ccccc3CC(=O)O)c3cc(-c4ccc5ccnc(N)c5c4)ccc32)C1 [Compound 306c, 2-(2-((5-(1-aminoisoquinolin-7-yl)-1-((1-(2-methoxyethyl)azetidin-3-yl)methyl)-1H-indazol-3-yl)methoxy)phenyl)acetic acid] | > 6.00
